This note sets out measurements from patent US20080194574A1, “Pyrazine Derivatives As Effective Compounds Against Infectious Diseases” (AXXIMA PHARMACEUTICALS AG, priority 2003, published 2008).

This experiment has as its target T1, viral kinase pUL-97 (Human cytomegalovirus, UniProt P16788).
T1 construct: The pUL-97 gene was cloned into a baculovirus vector; GST (glutathione S-transferase) (N); made in house; host or cells: Sf9 insect cells, baculovirus
The experiment is described as follows: UL97 kinase assay on Immobilon plate. In kind it is biochemical. To be noted: inhibition of UL 97 kinase activity, read-out: Activity Class [A, B, C]. The essentials: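 Compound was titrated into a radiometric reaction of Sf9-expressed GST-UL97 kinase, incubated 1 h at 30 °C in Tris-HCl pH 7.5/MnCl2/DTT buffer before EDTA stop. MBP substrate and ATP (3 μM in the added assay buffer) were supplied with γ-[33P]ATP. Labelled product bound to Immobilon filter was washed and counted by scintillation.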

Setting [1] is: class by IC50 / % inhibition at 10 or 100 μM.
Setting [2] is: class by IC50 / % inhibition at 10 μM or 100 μM.

Read-outs that look alike come from different tables or passages of the source.

T1 sequence (P16788 whole entry): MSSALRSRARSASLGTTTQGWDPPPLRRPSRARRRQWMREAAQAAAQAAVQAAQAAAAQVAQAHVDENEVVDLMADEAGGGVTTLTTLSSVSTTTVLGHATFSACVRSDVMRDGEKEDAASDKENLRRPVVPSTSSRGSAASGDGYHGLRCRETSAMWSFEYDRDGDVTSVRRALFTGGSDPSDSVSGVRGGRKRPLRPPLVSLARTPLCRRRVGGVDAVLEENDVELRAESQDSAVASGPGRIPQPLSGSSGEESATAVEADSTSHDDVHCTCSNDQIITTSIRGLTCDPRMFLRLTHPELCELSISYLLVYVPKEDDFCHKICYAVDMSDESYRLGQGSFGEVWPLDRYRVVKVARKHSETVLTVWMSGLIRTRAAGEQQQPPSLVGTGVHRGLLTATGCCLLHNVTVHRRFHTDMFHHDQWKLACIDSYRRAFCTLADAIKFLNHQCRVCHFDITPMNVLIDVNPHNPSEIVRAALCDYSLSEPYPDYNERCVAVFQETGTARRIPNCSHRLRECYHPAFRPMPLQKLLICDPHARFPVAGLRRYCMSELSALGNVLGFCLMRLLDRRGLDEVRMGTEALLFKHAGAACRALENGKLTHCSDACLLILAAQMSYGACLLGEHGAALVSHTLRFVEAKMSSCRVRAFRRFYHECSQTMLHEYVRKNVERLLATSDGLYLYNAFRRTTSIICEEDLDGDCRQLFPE

On to `c1ccc2cc(-c3cncc(N4CCN(CCN5CCCC5)CC4)n3)ccc2c1` [compound 17, 6′-Naphthalen-2-yl-4-(2-pyrrolidin-1-yl-ethyl)-3,4,5,6-tetrahydro-2H-[1,2′]bipyrazinyl], for which, under setting [1], the IC50 is below 1 µM.

For `COc1ccc(N2CCN(c3cncc(-c4ccc(F)cc4F)n3)CC2)cc1OC` [compound 41, 6′-(2,4-Difluoro-phenyl)-4-(3,4-dimethoxy-phenyl)-3,4,5,6-tetrahydro-2H-[1,2′]bipyrazinyl], the IC50 under setting [1] was 10 to 100 µM.

Take `Cc1cccc(-c2cncc(N3CCN(c4ccc(Cl)cc4)CC3)n2)c1` [compound 325, 4-(4-Chloro-phenyl)-6′-m-tolyl-3,4,5,6-tetrahydro-2H-[1,2′]bipyrazinyl]: the IC50 under setting [2] lay in the range of 10 to 100 µM.

`COc1ccc(-c2cncc(N3CCN(c4ccc(C)cc4C)CC3)n2)cc1OC` [compound 288]: the IC50 under setting [2] was in the range of 10 to 100 µM.

As for `COc1ccc(N2CCN(c3cncc(-c4cccc(C#N)c4)n3)CC2)cc1OC` [compound 173, 3-[4-(3,4-Dimethoxy-phenyl)-3,4,5,6-tetrahydro-2H-[1,2′]bipyrazinyl-6′-yl]-benzonitrile], under setting [1], the IC50 fell in the range of 10 to 100 µM.

In the case of `COc1ccc(OC)c(-c2cncc(N3CCN(c4ccc(F)cc4F)CC3)n2)c1` [compound 144, 4-(2,4-Difluoro-phenyl)-6′-(2,5-dimethoxy-phenyl)-3,4,5,6-tetrahydro-2H-[1,2′]bipyrazinyl], the IC50 under setting [1] fell in the range of 10 to 100 µM.

As to `COc1ccc(-c2cncc(NCCc3cccnc3)n2)cc1` [compound 18], the IC50 under setting [1] is below 1 µM.

Consider `c1ccc(C2CCN(c3cncc(-c4ccoc4)n3)CC2)cc1` [compound 277, 2-Furan-3-yl-6-(4-phenyl-piperidin-1-yl)-pyrazine], for which the IC50 under setting [2] is 10 to 100 µM.

Regarding `COc1cccc(N2CCN(c3cncc(-c4ccc(SC)cc4)n3)CC2)c1` [compound 369, 4-(3-Methoxy-phenyl)-6′-(4-methylsulfanyl-phenyl)-3,4,5,6-tetrahydro-2H-[1,2′]bipyrazinyl], the IC50 under setting [2] lay within 1 to 10 µM.

Consider `COc1ccc(N2CCN(c3cncc(-c4cc5ccccc5s4)n3)CC2)cc1` [compound 292, 6′-Benzo[b]thiophen-2-yl-4-(4-methoxy-phenyl)-3,4,5,6-tetrahydro-2H-[1,2′]bipyrazinyl], for which, under setting [2], the IC50 fell in the range of 1 to 10 µM.

With `c1ccc(C2CCN(c3cncc(-c4ccsc4)n3)CC2)cc1` [compound 336, 2-(4-Phenyl-piperidin-1-yl)-6-thiophen-3-yl-pyrazine], the IC50 under setting [2] was in the range of 1 to 10 µM.

As to `c1ccc(-c2cncc(N3CCN(c4ccccn4)CC3)n2)cc1` [compound 49], the IC50 under setting [1] is 1 to 10 µM.

In the case of `COc1cccc(N2CCN(c3cncc(-c4ccc5ccccc5c4)n3)CC2)c1` [compound 322, 4-(3-Methoxy-phenyl)-6′-naphthalen-2-yl-3,4,5,6-tetrahydro-2H-[1,2′]bipyrazinyl], the IC50 under setting [2] lay within 1 to 10 µM.

Regarding `COc1ccc(N2CCN(c3cncc(-c4ccc(CN)cc4)n3)CC2)cc1OC` [compound 60, 4-[4-(3,4-Dimethoxy-phenyl)-3,4,5,6-tetrahydro-2H-[1,2′]bipyrazinyl-6′-yl]-benzylamine], the IC50 under setting [1] is 10 to 100 µM.

Regarding `COc1cccc(N2CCN(c3cncc(-c4ccccc4)n3)CC2)c1` [compound 365, 4-(3-Methoxy-phenyl)-6′-phenyl-3,4,5,6-tetrahydro-2H-[1,2′]bipyrazinyl], the IC50 under setting [2] is 10 to 100 µM.

On to `CC(C)(C)c1ccc(-c2cncc(N3CCN(c4ccncc4)CC3)n2)cc1` [compound 257, 6′-(4-tert-Butyl-phenyl)-4-pyridin-4-yl-3,4,5,6-tetrahydro-2H-[1,2′]bipyrazinyl], for which the IC50 under setting [2] lay in the range of 1 to 10 µM.

`COc1cccc(-c2cncc(N3CCN(c4ccccn4)CC3)n2)c1` [compound 304, 6′-(3-Methoxy-phenyl)-4-pyridin-2-yl-3,4,5,6-tetrahydro-2H-[1,2′]bipyrazinyl]: the IC50 under setting [2] fell in the range of 1 to 10 µM.

With `Cc1ccc(N2CCN(c3cncc(-c4ccc(F)cc4)n3)CC2)cc1` [compound 136, 6′-(4-Fluoro-phenyl)-4-p-tolyl-3,4,5,6-tetrahydro-2H-[1,2′]bipyrazinyl], the IC50 under setting [1] is 1 to 10 µM.

With `CC(=O)Nc1cccc(-c2cncc(N3CCN(c4cccc5[nH]ccc45)CC3)n2)c1` [compound 36, N-{3-[4-(1H-Indol-4-yl)-3,4,5,6-tetrahydro-2H-[1,2′]bipyrazinyl-6′-yl]-phenyl}-acetamide], the IC50 under setting [1] lay in the range of 10 to 100 µM.

Regarding `OCc1ccc(-c2cncc(N3CCN(c4ccccc4F)CC3)n2)cc1` [compound 125, {4-[4-(2-Fluoro-phenyl)-3,4,5,6-tetrahydro-2H-[1,2′]bipyrazinyl-6′-yl]-phenyl}-methanol], the IC50 under setting [1] lay within 1 to 10 µM.

For the molecule `Clc1ccc(N2CCN(c3cncc(-c4csc5ccccc45)n3)CC2)cc1` [compound 326, 6′-Benzo[b]thiophen-3-yl-4-(4-chloro-phenyl)-3,4,5,6-tetrahydro-2H-[1,2′]bipyrazinyl], the IC50 under setting [2] lay within 1 to 10 µM.

`CC(=O)c1ccc(-c2cncc(N3CCN(c4ccncc4)CC3)n2)cc1` [compound 133, 1-[4-(4-Pyridin-4-yl-3,4,5,6-tetrahydro-2H-[1,2′]bipyrazinyl-6′-yl)-phenyl]-ethanone]: the IC50 under setting [1] lay within 1 to 10 µM.

As to `COc1ccc(N2CCN(c3cncc(-c4ccccc4CO)n3)CC2)cc1OC` [compound 264, {2-[4-(3,4-Dimethoxy-phenyl)-3,4,5,6-tetrahydro-2H-[1,2′]bipyrazinyl-6′-yl]-phenyl}-methanol], the IC50 under setting [2] lay in the range of 10 to 100 µM.

Take `CSc1ccc(-c2cncc(N3CCN(c4ccc(F)cc4)CC3)n2)cc1` [compound 140, 4-(4-Fluoro-phenyl)-6′-(4-methylsulfanyl-phenyl)-3,4,5,6-tetrahydro-2H-[1,2′]bipyrazinyl]: the IC50 under setting [1] lay in the range of 1 to 10 µM.

Regarding `COc1ccc(N2CCN(c3cncc(-c4cccc(OC)c4OC)n3)CC2)cc1OC` [compound 171, 4-(3,4-Dimethoxy-phenyl)-6′-(2,3-dimethoxy-phenyl)-3,4,5,6-tetrahydro-2H-[1,2′]bipyrazinyl], the IC50 under setting [1] was in the range of 10 to 100 µM.

As for `COc1ccc(OC)c(-c2cncc(N3CCN(c4ccc(F)cc4)CC3)n2)c1` [compound 234, 6′-(2,5-Dimethoxy-phenyl)-4-(4-fluoro-phenyl)-3,4,5,6-tetrahydro-2H-[1,2′]bipyrazinyl], under setting [2], the IC50 was 10 to 100 µM.

Turning to `Cc1ccc(N2CCN(c3cncc(-c4ccc5ccccc5c4)n3)CC2)c(C)c1` [compound 320, 4-(2,4-Dimethyl-phenyl)-6′-naphthalen-2-yl-3,4,5,6-tetrahydro-2H-[1,2′]bipyrazinyl], the IC50 under setting [2] fell in the range of 10 to 100 µM.

In the case of `CCOc1ccc(-c2cncc(N3CCN(c4ccc(OC)c(OC)c4)CC3)n2)cc1` [compound 45, 4-(3,4-Dimethoxy-phenyl)-6′-(4-ethoxy-phenyl)-3,4,5,6-tetrahydro-2H-[1,2′]bipyrazinyl], the IC50 under setting [1] was 1 to 10 µM.

In the case of `CC(=O)c1ccc(-c2cncc(N3CCC(c4ccccc4)CC3)n2)cc1` [compound 362], the IC50 under setting [2] lay within 1 to 10 µM.

For the molecule `c1ccc(N2CCN(c3cncc(-c4ccoc4)n3)CC2)cc1` [compound 118, 6′-Furan-3-yl-4-phenyl-3,4,5,6-tetrahydro-2H-[1,2′]bipyrazinyl], the IC50 under setting [1] was 1 to 10 µM.

For `CC(=O)c1ccc(N2CCN(c3cncc(-c4ccc(F)cc4)n3)CC2)cc1` [compound 276, 1-{4-[6′-(4-Fluoro-phenyl)-2,3,5,6-tetrahydro-[1,2′]bipyrazinyl-4-yl]-phenyl}-ethanone], the IC50 under setting [2] is 1 to 10 µM.
